Results taken from paper PMC7830877, “Possibility to Biotransform Anthracyclines by Peroxidases Produced by Bjerkandera adusta CCBAS 930 with Reduction of Geno- and Cytotoxicity and Pro-Oxidative Activity” (Molecules, 2021).
Read-outs that look alike come from different tables or passages of the source.

How the values were obtained:
[1] = system: BJ fibroblasts; assay: Calcein AM staining; assay type: cell-based, human; details: BJ cells; 24 and 48 h; parent vs Control 1, metabolite vs parent
Description: The human skin fibroblasts cell line BJ (ATCC CRL-2522) was obtained from American Type Culture Collection (ATCC, distributors: LGC Standards, Łomianki, Poland). BJ cells were maintained in MEM medium without phenol red supplemented with 10% fetal bovine serum (FBS). Cells were maintained at 37 °C in a humidified atmosphere with 5% CO2. Cells were seeded in 96-well culture plates (Costar, St. Louis, MO, USA) at a density of 5 × 10^3 per well and initially cultured before the experiment for 24 h.

[2] = system: caspase-3 activity in BJ fibroblasts; assay: Caspase-3 activity; assay type: cell-based, human; details: BJ cells; 24 h; medium with initial solutions
Description: The human skin fibroblasts cell line BJ (ATCC CRL-2522) was obtained from American Type Culture Collection (ATCC, distributors: LGC Standards, Łomianki, Poland). BJ cells were maintained in MEM medium without phenol red supplemented with 10% fetal bovine serum (FBS). Cells were maintained at 37 °C in a humidified atmosphere with 5% CO2. Cells were seeded in 96-well culture plates (Costar, St. Louis, MO, USA) at a density of 5 × 10^3 per well and initially cultured before the experiment for 24 h. […] Caspase-3 activity was assessed according to previous described method Nicholson et al. After 24 or 48 h of treatment with studied media culture plates were frozen in −80 °C and kept until assay. […] The lysates were incubated with substrate Ac-DEVD-pNA for caspase-3 at 37 °C. Cells treated with 1 μM staurosporine were used as a positive control (results not shown). After 30 min, absorbance of the lysates at 405 nm was measured using a microplate reader (FilterMax F5 Multi-Mode microplate reader). The amount of colorimetric product was continuously monitored for 120 min. The data were analyzed using Multi-Mode Analysis software (Molecular Devices, Corp., Sunnyvale, CA, USA).

[3] = DPPH radical scavenging assay; assay type: physicochemical; details: initial solutions 10 µg/mL
Description: Antioxidant activity was measured using the DPPH^• radical scavenging assay according to Brand-Williams et al. (1995). Each 100 μL of post-culture fluids and initial DNR and DOX (10 μg/mL) solutions were mixed with 100 μL of […] DPPH^• solution in 96% ethanol. Following 30 min incubation at room temperature, sample absorbance was measured […]) using 96% ethanol as a blank sample.

[4] = parameters: method as in PMID 17867890; details: SOS Chromotest, cited from earlier work
[5] = system: bacteria; assay: Genotoxicity assay (SOS ChromoTest); details: before treatment
[6] = system: V. fischeri; assay: Ecotoxicity assay (Microtox); assay type: cell-based, Vibrio fischeri; details: initial media 10 µg/mL or decolorized post-culture fluids
Description: The Microtox® (Model 500 Analyzer, London, UK) toxicity assay was used to evaluate the inhibition of luminescence of V. fischeri marine bacteria for untreated medium supplemented with DNR and DOX (10 µg/mL) and post-culture liquids of B. adusta CCBAS 930 according to the manufacturer’s protocol.

[7] = system: BJ fibroblasts; assay: ROS production (H2DCFDA); assay type: cell-based, human; details: BJ cells
Description: The human skin fibroblasts cell line BJ (ATCC CRL-2522) was obtained from American Type Culture Collection (ATCC, distributors: LGC Standards, Łomianki, Poland). BJ cells were maintained in MEM medium without phenol red supplemented with 10% fetal bovine serum (FBS). Cells were maintained at 37 °C in a humidified atmosphere with 5% CO2. Cells were seeded in 96-well culture plates (Costar, St. Louis, MO, USA) at a density of 5 × 10^3 per well and initially cultured before the experiment for 24 h. […] The ROS measurement was performed according to a previously described method. […] The cells were incubated in H2DCFDA in serum-free and phenol red-free medium for 45 min before conditioned medium treatment. After 24 and 48 h of incubation of the cells with increasing concentrations of compounds (5% CO2 at 37 °C), the culture medium was replaced with fresh medium to remove extracellular residual DCF and studied compounds to reduce the fluorescence background. Cells treated with 0.3% hydrogen peroxide (H2O2) were used as a positive control (result not shown).

[8] = system: BJ fibroblasts; assay: Resazurin reduction assay; assay type: cell-based, human; details: BJ cells, medium with initial solution
Description: The human skin fibroblasts cell line BJ (ATCC CRL-2522) was obtained from American Type Culture Collection (ATCC, distributors: LGC Standards, Łomianki, Poland). BJ cells were maintained in MEM medium without phenol red supplemented with 10% fetal bovine serum (FBS). Cells were maintained at 37 °C in a humidified atmosphere with 5% CO2. Cells were seeded in 96-well culture plates (Costar, St. Louis, MO, USA) at a density of 5 × 10^3 per well and initially cultured before the experiment for 24 h. […] The resazurin reduction cell viability and metabolism assay was performed according to a previously described method. On the day of analysis, a working solution of 60 µM resazurin was prepared in medium containing 1% FBS. […] Fluorescence was measured with an excitation wavelength of 530 nm and emission 590 nm on a FilterMax F5 Multi-Mode microplate reader (Molecular Devices, Corp., Sunnyvale, CA, USA) for 1 and 2 h after dye addition.

[9] = system: B. adusta CCBAS 930; assay: Free radical (SOR) content in B. adusta CCBAS 930 cultures (NBT); parameters: species or system Bjerkandera adusta
Description: The content of PhC was determined spectrophotometrically at A740nm according to Singleton and Rossi (1965) with a slight modification. SOR levels were estimated based on the detection of superoxide-induced formazan formation from nitrotetrazolium blue (NBT) (A560nm). Untreated medium with DNR or DOX at a concentration of 10 µg/mL was used as control.

SMILES	cell number (calcein AM staining) [1]	caspase-3 activity [2]	antioxidant activity (DPPH scavenging) [3]	concentration exhibiting genotoxic properties ([4]; with metabolic activation) [ng/mL]	concentration exhibiting genotoxic properties ([4]; without metabolic activation) [ng/mL]	CIF (corrected induction factor) ([5]; C 0.15 µg mL^−1)	CIF (corrected induction factor) ([5]; C 0.31 µg mL^−1)	CIF (corrected induction factor) ([5]; C 0.62 µg mL^−1)	CIF (corrected induction factor) ([5]; C 1.25 µg mL^−1)	CIF (corrected induction factor) ([5]; C 2.50 µg mL^−1)	CIF (corrected induction factor) ([5]; C 5 µg mL^−1)	CIF (corrected induction factor) ([5]; C 10 µg mL^−1)	toxicity units (TU) [6]	ROS production induced compared to Control 1 ([7]; 24 h) [%]	ROS production induced compared to Control 1 ([7]; 48 h) [%]	decrease in resazurin reduction compared to Control 1 ([8]; 24 h) [%]	decrease in resazurin reduction compared to Control 1 ([8]; 48 h) [%]	decrease in the content of free radicals [9] [%]
COc1cccc2c1C(=O)c1c(O)c3c(c(O)c1C2=O)C[C@@](O)(C(=O)CO)C[C@@H]3O[C@H]1C[C@H](N)[C@H](O)[C@H](C)O1 [DOX, doxorubicin]	decrease in cell number	not affected	did not show any antioxidant activity	98	74	2.88	1.21	1.23	2.53	3.27	3.70	9.58	1.90 ± 0.13	680.22	457.34	50.36	40.36	90.70
COc1cccc2c1C(=O)c1c(O)c3c(c(O)c1C2=O)C[C@@](O)(C(C)=O)C[C@@H]3O[C@H]1C[C@H](N)[C@H](O)[C@H](C)O1 [DNR, daunomycin]	decrease in cell number	not affected	did not show any antioxidant activity	–	–	2.50	1.60	1.21	1.54	2.80	5.68	13.42	1.79 ± 0.09	625.72	372.97	48.49	48.40	90.30
